Data: PMC4026384, “Antibacterial Activity of THAM Trisphenylguanide against Methicillin-Resistant Staphylococcus aureus” (PLoS ONE, 2014)
≈ marks a conversion by molar mass, not a printed value. Entries after “also recorded” stand apart in the source; their conditions may differ. Where two headings read alike, the source gives them in different places.

How the values were obtained:
E. coli = test: Time-to-kill (kill curve) assay; type: cell-based, Escherichia coli
Method: Bacteria were cultured to mid-log phase (OD600 ∼0.4) in LB media with shaking and then diluted to approximately 10^4 to 10^5 CFU/mL. Bacteria were then treated with compound at the MIC, 2×MIC, and 4×MIC (as determined by the MIC assays). Over the course of 24 hours, bacteria were incubated at 37°C and aliquots removed at various time intervals, diluted, and plated on LB agar. Plated bacteria were incubated overnight at 37°C and CFU/mL were calculated for each time interval.

MRSA strain LAC, USA300 = test: Minimum bactericidal concentration; type: cell-based, Staphylococcus aureus; settings: MHB, median, 3-log reduction of viable bacteria
Method: (§1) Minimum inhibitory concentration (MIC) values were determined for those compounds showing the most antibacterial activity in the bacterial viability assays (see Supplemental Materials) against each of the strains of bacteria using a microdilution method in 96 well plates with LB media according to guidelines published by the British Society for Antimicrobial Chemotherapy. Minimum bactericidal concentrations (MBC) were determined by plating 10 µL and 100 µL from each well showing no signs of growth after overnight incubation of the MIC plates and determining the minimum concentration showing a 3-log reduction of viable bacteria. MIC and MBC were also determined in cation-adjusted Mueller-Hinton broth (Hardy Diagnostics, Santa Maria, CA) for some compounds and strains.

P. aeruginosa PA01 = test: Bacterial viability assay; type: cell-based, Pseudomonas aeruginosa; settings: Pseudomonas aeruginosa, 1 h, one hour in PBS, CFU, ± SEM
Method: (§2) Supplementary file pone.0097742.s003.doc: Table S1 Bacterial viability assays. Bacteria were grown at 37°C to mid-log phase (OD600 ∼0.4). The bacteria were diluted to approximately 10^4 to 10^5 colony forming units (CFU) per milliliter and added to a solution of phosphate buffered saline (PBS, 16 mM phosphate, 0.14 M NaCl, pH 7.2) containing the compound at varied concentrations. Samples were incubated at 37°C for one hour and then plated on Luria Bertani (LB) agar at appropriate dilutions in PBS. The plates were incubated overnight at 37°C and colonies enumerated the following day. IC50s were calculated from graphs of CFU as a function of compound concentration. Chlorhexidine was used as a positive control. […] (DOC) Click here for additional data file.
(§3) Bacterial viability assays. Bacteria were grown at 37°C to mid-log phase (OD600 ~0.4). The bacteria were diluted to approximately 10^4 to 10^5 colony forming units (CFU) per milliliter and added to a solution of phosphate buffered saline (PBS, 16 mM phosphate, 0.14 M NaCl, pH 7.2) containing the compound at varied concentrations. Samples were incubated at 37°C for one hour and then plated on Luria Bertani (LB) agar at appropriate dilutions in PBS. The plates were incubated overnight at 37°C and colonies enumerated the following day. IC50s were calculated from graphs of CFU as a function of compound concentration. Chlorhexidine was used as a positive control.

[1] = tested on: Acinetobacter baumannii ATCC 19606; test: Minimum inhibitory concentration (microdilution); type: cell-based; settings: Acinetobacter baumannii, ATCC19606; A. baumannii ATCC 19606; LB media; median of at least 3 determinations; read-out: MIC
Method: as §1

[2] = tested on: Enterococcus faecalis ATCC V583; test: Minimum inhibitory concentration (microdilution); type: cell-based; settings: Enterococcus faecalis, ATCCV583; E. faecalis V583; LB media; median of at least 3 determinations; read-out: MIC
Method: as §1

[3] = tested on: Pseudomonas aeruginosa (strain PA01); test: Minimum inhibitory concentration (microdilution); type: cell-based; settings: Pseudomonas aeruginosa; P. aeruginosa PA01; LB media; median of at least 3 determinations; read-out: MIC
Method: as §1

[4] = tested on: Escherichia coli (strain K91); test: Minimum inhibitory concentration (microdilution); type: cell-based; settings: E. coli K91
Method: as §1

[5] = tested on: Enterococcus faecalis MSU#10; test: Minimum inhibitory concentration (microdilution); type: cell-based; settings: Enterococcus faecalis; E. faecalis MSU#10; LB media; median of at least 3 determinations; read-out: MIC
Method: as §1

[6] = tested on: Acinetobacter baumannii ATCC BAA1605; test: Minimum inhibitory concentration (microdilution); type: cell-based; settings: ATCCBAA1605, A. baumannii ATCC BAA1605, LB media, median of at least 3 determinations
Method: as §1

[7] = tested on: Staphylococcus aureus RN4220; test: Minimum inhibitory concentration (microdilution); type: cell-based; settings: S. aureus RN4220
Method: as §1

MRSA = test: Cytoplasmic leakage & bacteriolysis assay; type: cell-based, Staphylococcus aureus; settings: for change in A260 of culture supernatant (cytoplasmic leakage): 4×MIC (8 mg/L), within the first 30 minutes, versus untreated controls; for number of viable cells (CFUs) during the leakage assay: over the 3 hour period
Method: Bacteria were cultured to mid-log phase (OD600 ∼0.4) in LB media with shaking. Bacteria were then harvested and resuspended in PBS to a concentration of ∼10^8 CFU/mL. […] Bacteria were monitored over time for cytoplasmic leakage via A260 measurements and for cell viability. For A260 readings, sample aliquots were centrifuged for 5 min at 10,000×g at room temperature to remove cellular debris. Viability was monitored by determining the CFU/mL during the first 3 hours post treatment as described above for the kill curve assays.

A. baumannii ATCC 19606 = test: Bacterial viability assay; type: cell-based, Acinetobacter baumannii; settings: Acinetobacter baumannii, ATCC19606, 1 h, one hour in PBS, CFU, ± SEM
Method: as §2, §3

[8] = tested on: A. baumannii ATCC BAA1605; test: Bacterial viability assay; type: cell-based, Acinetobacter baumannii; settings: Acinetobacter baumannii, ATCCBAA1605, 1 h, one hour in PBS, CFU, ± SEM
Method: as §2, §3

[9] = tested on: HaCaT human keratinocytes; test: Cell toxicity assay (MTS); type: cell-based
[10] = tested on: human breast cancer cell line MDA-MB-231; test: Cell toxicity assay (MTS); type: cell-based; settings: MDA-231
[11] = Escherichia coli, LB media, median of at least 3 determinations, read-out: MIC
[12] = Staphylococcus aureus, LB media, median of at least 3 determinations, read-out: MIC

| Compound | MBC (MRSA strain LAC, USA300) [µg/mL] | IC50 (P. aeruginosa PA01) [nM] | MIC [1] [µg/mL] | MIC [2] [µg/mL] | MIC [3] [µg/mL] | MIC ([4]; MHB, median) [µg/mL] | MIC [4, 11] [µg/mL] | MIC [5] [µg/mL] | MIC [6] [µg/mL] | MIC ([7]; MHB, median) [µg/mL] | MIC [7, 12] [µg/mL] | IC50 (A. baumannii ATCC 19606) [nM] | IC50 [8] [nM] | further results |
| --- | --- | --- | --- | --- | --- | --- | --- | --- | --- | --- | --- | --- | --- | --- |
| [H]/N=C(\N/C(=N/[H])NCCCCCCNC(=N)NC(=N)Nc1ccc(Cl)cc1)Nc1ccc(Cl)cc1 [Chlorhexidine, chlorhexidine, reference compound] | 0.89 (≈ 1.76 µM) | 2600 ± 500 | 16 (≈ 31.7 µM) | 6 (≈ 11.9 µM) | 8 (≈ 15.8 µM) | 0.44 (≈ 0.87 µM) | 1 (≈ 1.98 µM) | 4 (≈ 7.91 µM) | 16 (≈ 31.7 µM) | 0.89 (≈ 1.76 µM) | 1 (≈ 1.98 µM) | 1300 ± 200 | 780 ± 310 | time after which no viable cells remained (E. coli; 2 mg/L): 6 h; reduction in CFU/mL (E. coli; 2 mg/L, within 4 hours of treatment): > 3 log; change in A260 of culture supernatant (cytoplasmic leakage) (MRSA): immediate increase in A260; change in A260 of culture supernatant (cytoplasmic leakage) (MRSA; listed as chlorhexidine): significant increase in A260; number of viable cells (CFUs) during the leakage assay (MRSA): no significant reductions in CFUs; number of viable cells (CFUs) during the leakage assay (MRSA; listed as chlorhexidine): no significant reduction in CFUs |
| N=C(NCCCCCCNc1nc(NCCCCCCNC(=N)Nc2ccccc2)nc(NCCCCCCNC(=N)Nc2ccccc2)n1)Nc1ccccc1 [THAM-3ΦG, Trishexylaminomelamine trisphenylguanide] | 1 (≈ 1.29 µM) | 4500 ± 2500 | > 256 | 256 (≈ 329 µM) | 48 (≈ 61.7 µM) | 8 (≈ 10.3 µM) | 8 (≈ 10.3 µM) | 32 (≈ 41.1 µM) | > 256 | 1 (≈ 1.29 µM) | 2 (≈ 2.57 µM) | 860 ± 250 | 4300 ± 1000 | time to kill all the cells (E. coli; 4×MIC (32 mg/L)): 24 h; reduction in CFU/mL (E. coli; 4×MIC (32 mg/L), only after 4 hours of treatment): > 3 log; change in A260 of culture supernatant (cytoplasmic leakage) (MRSA; listed as THAM-3ФG): significant increase in A260; also recorded: immediate increase in A260; number of viable cells (CFUs) during the leakage assay (MRSA; listed as THAM-3ФG): no significant reductions in CFUs; Relative to chlorhexidine (factor by which cytotoxicity was reduced) [9]: 7.1; Relative to chlorhexidine (factor by which cytotoxicity was reduced) [10]: 3.0 |
